US20250186454A1, “METHODS FOR TREATING ABERRANT BEHAVIOR AND MOTOR ACTIVITY” (LAPKO INC, dba AFECTA PHARMACEUTICALS, priority 2023, published 2025)

Columns and labels:
[1] = system: patients with ASD; test: open-label observational trial, eight weeks, response scored using the ABC-C scale; type: in vivo, human
Procedure: In an open-label observational trial by an investigator, 11 patients with ASD were treated for eight weeks with molindone starting at 5 mg/day and the dosage increased by the patient and caregiver in 5 mg increments as tolerated by the subjects up to a maximum dose of 25 mg/day or until amelioration of the aberrant behaviors was seen. Patient response was scored using the ABC-C scale.

[2] = pharmacokinetic study of equivalent doses by gastric absorption compared to sublingual absorption; type: in vivo
Procedure: A study of equivalent doses of molindone administered by gastric absorption compared to sublingual absorption. […] Molindone is primarily, if not exclusively, metabolized by the liver (hepatic metabolism). The first metabolite of molindone obtained by liver metabolism is 3-ethyl-2-(hydroxymethyl)-5-[(morpholin-4-yl)methyl]-1,5,6,7tetrahydro-4H-indol-4-one. The level of this metabolite was also measured at the Cmax of the sublingual and gastric dosing regimens.

[3] = N=11, Week 8 vs baseline, p <0.0001

## CCc1c(C)[nH]c2c1C(=O)C(CN1CCOCC1)CC2 (stereo not drawn) [molindone, 3-ethyl-2-methyl-5-(morpholin-4-ylmethyl)-1,5,6,7-tetrahydroindol-4-one]
[1]; ASD patients, eight weeks
  body weight during the course of therapy (subjective responses from caregivers and subjects): noticeable and desirable weight loss
  somnolence during the course of the study: none complained of increased somnolence
[1]; N=11, Week 8 vs baseline, p 0.0001
  ABC-C Total Score (0-174), Decrease from baseline (%): 69.9%
[1]; N=11, Week 8 vs baseline, p 0.0048
  ABC-C Inappropriate speech (0-12), Decrease from baseline (%): 77%
[1]; N=11, Week 8 vs baseline, p 0.0069
  ABC-C Lethargic/Withdrawn (0-48), Decrease from baseline (%): 63.2%
[1]; N=11, Week 8 vs baseline, p 0.0081
  ABC-C Stereotypy (0-21), Decrease from baseline (%): 72.8%
[1]; [3]
  ABC-C Hyperactivity/Noncompliance (0-48), Decrease from baseline (%): 62.4%
  ABC-C Irratability (0-45), Decrease from baseline (%): 76.6%
[1]; N=11 ASD patients, 5 up to 25 mg/day, baseline 9.6, p 0.0048
  ABC-C Scale Mean Score, Inappropriate speech (0-12), Week 8: 2.2
[1]; N=11 ASD patients, 5 up to 25 mg/day, baseline 11.8, p 0.0081
  ABC-C Scale Mean Score, Stereotypy (0-21), Week 8: 3.2
[1]; N=11 ASD patients, 5 up to 25 mg/day, baseline 16.5, p 0.0069
  ABC-C Scale Mean Score, Lethargic/Withdrawn (0-48), Week 8: 6.4
[1]; N=11 ASD patients, 5 up to 25 mg/day, baseline 29.8, p <0.0001
  ABC-C Scale Mean Score, Hyperactivity/Noncompliance (0-48), Week 8: 11.2
[1]; N=11 ASD patients, 5 up to 25 mg/day, baseline 35.6, p <0.0001
  ABC-C Scale Mean Score, Irratability (0-45), Week 8: 8.3
[1]; N=11 ASD patients, 5 up to 25 mg/day, baseline 103.3, p 0.0001
  ABC-C Scale Mean Score, Total Score (0-174), Week 8: 31.3
[1]; during the eight-week study, all p values less than 0.05
  reduction of symptoms in all five ABC-C categories, including stereotypy: significant improvement
[2]; non-gastric dosing regimen compared to gastric dosing
  T1/2: longer
[2]; sublingual dosing compared to gastric dosing
  area under the curve (AUC): better
[2]; sublingual dosing compared to gastric dosing, equivalent doses, FIG. 1
  Cmax (highest plasma concentration of the drug): higher
